Assay results: PubChem BioAssay AID1508591

Conditions: rat; liver microsomes; pH 7.4; 15.0 min; 1.0 µM

O=c1cc(CN2CCCN(c3ccc(C(F)(F)F)cn3)CC2)nc2ccccn12
half-life: 8.7 min

Cc1ccc(S(=O)(=O)N2CCN(C(=O)c3cc4c(s3)CCC4)CC2)cc1
half-life: 1.58 min

O=S(=O)(Nc1nccs1)c1ccc(NCc2cccc(O)c2)cc1
half-life: > 30 min

COc1ccc(-c2cc(-c3cccc(NC(C)=O)c3)cn3cncc23)cn1
half-life: 15.7 min

Cc1ccc(NS(=O)(=O)c2ccccc2C(=O)Nc2nc(-c3ccccc3)cs2)cc1
half-life: 15 min

COc1ccc(NC(=O)CCCc2nnc3n(CCC(C)C)c(=O)c4sccc4n23)cc1Cl
half-life: 2.96 min

O=C(C1CCN(c2nc(-c3ccc(Br)cc3)cs2)CC1)N1CCNCC1
half-life: > 30 min

CCOc1ccc(N2CC(c3nc(-c4ccccn4)no3)CC2=O)cc1 (stereo unspecified)
half-life: > 30 min

COc1cc(OC)c2c(=O)[nH]c(-c3cc(C)c(OCCO)c(C)c3)nc2c1
half-life: > 30 min

Cc1ccc(S(=O)(=O)Nc2cnccc2C(=O)Nc2ccc(-c3nn[nH]n3)cc2)cc1
half-life: > 30 min

O=C(Nc1cccc(C(F)(F)F)c1)Nc1cc(S(=O)(=O)NC2CC2)ccc1-c1ccsc1
half-life: 5.65 min

O=C(Nc1nc(-c2ccccc2)cs1)c1ccncc1NS(=O)(=O)c1cccs1
half-life: 12 min

CC[C@H](CO)Nc1nc(NCc2ccccc2)c2ncn(C(C)C)c2n1
half-life: 5.51 min

O=C(Nc1ccc(S(=O)(=O)Nc2nccs2)cc1)c1cc(-c2ccccc2)nc2ccccc12
half-life: > 30 min

O=C(c1cnc(N2CCCCC2)c2ccccc12)N1CCN(c2ccccn2)CC1
half-life: 2.1 min

Cc1nc(N2CCN(c3ccccn3)CC2)c2c(C)c(C(=O)Nc3ccc(F)cc3Cl)sc2n1
half-life: 10.2 min

O=C(c1ccc2c(c1)ncn2-c1ccc(Cl)cc1)N1CCCCC1
half-life: 9.8 min

c1ccc(CNc2nc(NCc3ccccc3)c3ccccc3n2)cc1
half-life: 5.2 min

Cc1csc2c1c(=O)n(O)c(=O)n2Cc1ccccc1
half-life: > 30 min

CCOc1ccc(CCNC(=O)c2cc3ccncc3n2Cc2cccc(C)c2)cc1OCC
half-life: 7.1 min

CC(C)Oc1cccc(-c2cnc(N3CCC(C(N)=O)CC3)s2)c1
half-life: 23 min

Cc1ccc2oc(NC3=NC(c4ccccc4Cl)C4=C(CCCC4=O)N3)nc2c1 (stereo unspecified)
half-life: > 30 min

Cc1ccc(S(=O)(=O)n2cc(C(=O)Nc3nc(-c4ccccc4)cs3)c3ccccc32)cc1
half-life: 23 min

COc1ccccc1NS(=O)(=O)c1cccc(NC(=O)c2[nH]c(C)c(C(C)=O)c2C)c1
half-life: 4.7 min

Cc1noc(C)c1-c1ccc2ncnc(NCc3ccc4[nH]ccc4c3)c2c1
half-life: 3.2 min

COc1ccc(OC)c(-c2nc3c(C#N)c[nH]n3c2NC2CCCCC2)c1
half-life: 4.2 min

O=C(Nc1nc(-c2ccccc2)cs1)c1ccncc1NS(=O)(=O)c1cccnc1
half-life: 20 min

CCC(CC)c1cc([C@H]2CN3CC[C@H]2C[C@@H]3CNC(=O)Cc2cccs2)nc(-c2ccncc2)n1
half-life: 2.78 min

Fc1ccc(Oc2nc(-c3ccncc3)nc3ccccc23)cc1F
half-life: 15 min

O=C(O)CCNc1cc(N2CCc3ccccc3CC2)nc(-c2cccnc2)n1
half-life: > 30 min

CCOC(=O)C1=C(CN(CC)Cc2ccccc2)NC(=O)NC1c1ccc(OC(C)C)cc1 (stereo unspecified)
half-life: 1.2 min

COc1cc2c(cc1NC(=O)COc1ccc(Cl)cc1)oc1ccccc12
half-life: 8.77 min

COc1cccc(CNc2ccc(C(=O)Nc3nccs3)cc2)c1O
half-life: > 30 min

CC1=C[C@@H](CNCc2cccnc2)[C@H](C(C)C)C[C@H]1Cc1nnc(-c2ccc([N+](=O)[O-])cc2)o1
half-life: 2.13 min

COC(=O)c1cc(Cl)ccc1NC(=O)CSc1ncc(S(=O)(=O)c2ccc(Br)cc2)c(=O)[nH]1
half-life: 18 min

CC1=C(C(=O)Nc2nc3ccccc3s2)C(c2[nH]ncc2Cl)N=C(Nc2nc3ccccc3o2)N1 (stereo unspecified)
half-life: 10.4 min

CC1CCN(C(=O)c2ccc(-c3ccc(N4CCSCC4)nc3)cc2)CC1
half-life: 1.52 min

c1ccc(C2=Nn3c(nnc3-c3ccncc3)SC2)cc1
half-life: 9.1 min

Cc1ccc(NS(=O)(=O)c2c(C)[nH]c(C)c2C(=O)N2CCCC2)cc1Cl
half-life: 1.03 min

O=[S+]([O-])(Nc1nccs1)c1ccc(NCc2cc(F)cc(Cl)c2O)cc1
half-life: > 30 min

COCCCOc1ccnc(CS(=O)c2nc3ccccc3[nH]2)c1C (stereo unspecified)
half-life: 8.83 min

CC(C)Oc1ccc(CCNC(=O)c2cc3sccc3n2Cc2ccccc2)cc1OC(C)C
half-life: 2.7 min

CCc1ccc(CNc2ccc3c(c2)ncn3C(C)(C)C)cc1
half-life: 9.8 min

Cc1cc(Cl)ccc1COc1ccnn1-c1cc(C(=O)O)ccn1
half-life: > 30 min

Cc1cnc(-c2ccccc2C(C)C)nc1NCc1ccc(-n2ccnn2)cc1
half-life: 10.3 min

O=S(=O)(Nc1cnc2ccccc2c1)c1ccc(NCc2cccc(Cl)c2O)cc1
half-life: 18 min

COc1ccc(-c2ccc3nc(-c4ccc(SC)cc4)oc3c2)c(OC)c1OC
half-life: 1.8 min

Fc1cnc(-c2ccccc2C(F)F)nc1NCC1CCN(c2cnccn2)C1 (stereo unspecified)
half-life: 2.8 min

Cc1cccc(-n2cnc3cc(C(=O)N4CCCC(C(F)(F)F)C4)ccc32)c1 (stereo unspecified)
half-life: 1.3 min

COc1ccc(-c2csc(NC(=O)c3ccccc3NS(=O)(=O)c3ccc(C)cc3)n2)cc1
half-life: 2.34 min

O=C1CCCC2=C1C(C1CCCCC1Cl)N=C(NC1NC3CCCCC3S1)N2 (stereo unspecified)
half-life: 10.9 min

CN1CCN(c2ccc(Nc3nc(-c4ccncc4)nc4ccccc34)cc2F)CC1
half-life: 8.8 min

CC(C)(O)Cn1c(NC(=O)c2ccc(-c3cn[nH]c3)s2)nc2cc(CN3CCOCC3)ccc21
half-life: 14 min

CCCc1cc(C)[nH]c(=O)c1CNC(=O)c1cc(-c2ccc(N3CCN(C(C)C)CC3)nc2)cc2c1cnn2C(C)C
half-life: 25 min

O=C([C@H](Cc1ccc(O[S+](=O)([O-])c2cccc3cnccc23)cc1)N[S+](=O)([O-])c1cccc2cnccc12)N1CCN(Cc2ccccc2)CC1
half-life: 16 min

CCOc1ccc(CCNC(=O)c2cc3sccc3n2Cc2ccccn2)cc1OCC
half-life: 1.5 min

CC/C=C\CC1C(=O)CCC1CC(=O)OC (stereo unspecified)
half-life: > 30 min

O=C(O)CNC(=O)c1c(O)c2ccccc2n(Cc2ccccc2)c1=O
half-life: 23.6 min

Cc1nn(-c2ccccc2)c2nc(C3CC3)cc(C(=O)Nc3ccc(F)cc3)c12
half-life: > 30 min

O=C(CCc1ccccc1)Nc1ccc(S(=O)(=O)Nc2nccs2)cc1
half-life: > 30 min

O=C(NCC1Cn2cccc2CN1Cc1cccnc1)Nc1ccccc1 (stereo unspecified)
half-life: 1.41 min

CNc1ccc(Br)cc(C(=O)/C=C/c2ccc(OC)cc2OC)c1=O
half-life: 5.16 min

Cc1ccc(-c2c(CN3CCN(c4cccc(C(F)(F)F)c4)CC3)csc2C)cc1
half-life: 18.5 min

CC(C)N(CCCNC(=O)Nc1ccc(C(C)(C)C)cc1)C[C@H]1O[C@@H](n2ccc3c(N)ncnc32)[C@H](O)[C@@H]1O
half-life: 2.42 min

O=C1C(c2ccc(C(F)(F)F)cc2)=C(Nc2ccc(Cl)cc2)c2ccccc21
half-life: 29.2 min

COc1ccccc1-c1csc(N2CCC(C(N)=O)CC2)n1
half-life: 15 min

O=C(Nc1cccc(C(F)(F)F)c1)c1cc2nc(-c3ccccc3)cc(C(F)(F)F)n2n1
half-life: > 30 min

COc1ccc2c3c([nH]c2c1)C1CC2C(CC(O)C(OC)C2CO)CN1CC3 (stereo unspecified)
half-life: > 30 min

CN(C)c1cccc(-c2ccnc(N3CCC(C(N)=O)CC3)n2)c1
half-life: 1.67 min

O=C(Nc1ncc(Cc2ccccc2)s1)c1ccc(-c2cccc([N+](=O)[O-])c2)o1
half-life: > 30 min

C=C1[C@@H](C)C2[C@H](Cc3ccccc3)NC(=O)[C@@]23C(/C=C/C[C@H](C)C[C@@](C)(O)/C=C/[C@@H]3OC(C)=O)[C@@H]1O (stereo partly specified)
half-life: 5.2 min

CS(=O)(=O)c1ccc(-c2csc(N3CCC(C(N)=O)CC3)n2)cc1
half-life: > 30 min

CN1CCN(c2ccc(-c3cccc(CN4CCOCC4)c3)cc2NC(=O)c2c[nH]c(=O)cc2C(F)(F)F)CC1
half-life: > 30 min

FC(F)(F)c1ccccc1-c1nc(NCc2ccc(Cl)cc2)c2ccccc2n1
half-life: > 30 min

O=C(Nc1nc(-c2ccccc2)cs1)c1ccccc1-n1cnnn1
half-life: > 30 min

COc1ccc2cc1Oc1ccc(cc1)C[C@@H]1c3c(cc(OC)c4c3Oc3cc5c(cc3O4)CCN[C@H]5C2)CCN1C
half-life: > 30 min

O=C1NC(=O)C(c2cnc3ccccn23)=C1c1cn2c3c(cccc13)CN(C(=O)N1CCOCC1)CC2
half-life: > 30 min

O=C([C@@H]1CCCN(c2ccc3[nH]c(C4(n5cc(Cl)cn5)CC4)nc3n2)C1)N1CCCC1
half-life: > 30 min

CC(=O)N1CCN(c2nc(-c3ccc(Br)cc3)cs2)CC1
half-life: > 30 min

CCCCCCCC/C=C\CCCCCCCC(=O)NCCO
half-life: 2.33 min

O=C(C=Cc1cccnc1)NCCCCC1CCN(C(=O)c2ccccc2)CC1
half-life: 12.2 min

COc1c2c(c3c(c1CCC(=O)O)OC(C)(C)C=C3)OC(C)(C)C=C2
half-life: > 30 min

Cn1cc(-c2nc(Nc3ccc(F)c(F)c3)c3ccccc3n2)cn1
half-life: 21 min

Cc1ccc(C(=O)N2CCc3sc(C(=O)NC(C)c4ccccc4)cc3C2)cc1 (stereo unspecified)
half-life: 4.79 min

N#C/C(=C\c1ccc(Sc2ccc(Cl)cc2)o1)c1nc2ccccc2[nH]1
half-life: 7.56 min

Cc1ccc(C(=O)Nc2cccc(C(F)(F)F)c2)cc1Nc1nc(-c2cccnc2)nc2c1cnn2C
half-life: > 30 min

CCC(CC)C(=O)NC[C@@H]1C=C(C)[C@H](Cc2nc3c(C)cccc3[nH]2)C[C@H]1C(C)C
half-life: 1.12 min

COc1ccc(Nc2cc(C)nc(-n3nc(C)cc3C)n2)cc1Cl
half-life: 17.7 min

N#Cc1cccc(NC(=O)c2sc3nc4c(cc3c2N)N2CCC4CC2)c1
half-life: 25.6 min

COc1cncc(Nc2ncc(-c3cccc(N(C)C)c3)c3c2OCC3)c1
half-life: 11.7 min

CC(=O)Nc1cccc(-c2csc(Nc3cc(C)ccn3)n2)c1
half-life: > 30 min

COc1ccccc1Nc1ccnc(N2CCN(C(=O)c3ccc(F)cc3)CC2)n1
half-life: 11.2 min

CCOc1ccc(CCNC(=O)c2ccccc2)cc1OCC
half-life: 1.5 min

Cc1nc2ccc(C(=O)N3CCC4(CC3)CC(=O)c3c(cnn3C(C)C)C4)cc2[nH]1
half-life: > 30 min

O=C1CCCC2=C1C(c1[nH]ncc1Cl)N=C(Nc1nc3ccccc3o1)N2 (stereo unspecified)
half-life: 13.5 min

Cc1ccc(S(=O)(=O)Nc2cnccc2C(=O)Nc2nc(-c3ccccc3F)cs2)cc1
half-life: 9.9 min

COc1ccc(S(=O)(=O)Nc2cnccc2C(=O)Nc2nc(-c3ccccc3)cs2)cc1
half-life: 1.6 min

COc1cc(-c2nc(Nc3ccc(F)c(F)c3)c3ccccc3n2)c(F)cn1
half-life: > 30 min

COc1cccc(NS(=O)(=O)c2ccc(NCc3cccc(OC)c3O)cc2)c1
half-life: 4 min

Cc1ccc(-c2cc(C(=O)Nc3ccncc3)c3ccccc3n2)cc1
half-life: > 30 min

CC(C)(C)c1ccc(-c2ccc(=O)n(CC(=O)NCCc3ccccc3)n2)cc1
half-life: 1.6 min
